{"source": "patent US8044052B2", "about": "“Biaryl ether urea compounds” (Pfizer Inc., priority 2006, dated 2011)"}
{"target": "T1, Human FAAH (Homo sapiens, UniProt O00519)", "T1 construct": "made in house", "T1 sequence (O00519 1-579)": "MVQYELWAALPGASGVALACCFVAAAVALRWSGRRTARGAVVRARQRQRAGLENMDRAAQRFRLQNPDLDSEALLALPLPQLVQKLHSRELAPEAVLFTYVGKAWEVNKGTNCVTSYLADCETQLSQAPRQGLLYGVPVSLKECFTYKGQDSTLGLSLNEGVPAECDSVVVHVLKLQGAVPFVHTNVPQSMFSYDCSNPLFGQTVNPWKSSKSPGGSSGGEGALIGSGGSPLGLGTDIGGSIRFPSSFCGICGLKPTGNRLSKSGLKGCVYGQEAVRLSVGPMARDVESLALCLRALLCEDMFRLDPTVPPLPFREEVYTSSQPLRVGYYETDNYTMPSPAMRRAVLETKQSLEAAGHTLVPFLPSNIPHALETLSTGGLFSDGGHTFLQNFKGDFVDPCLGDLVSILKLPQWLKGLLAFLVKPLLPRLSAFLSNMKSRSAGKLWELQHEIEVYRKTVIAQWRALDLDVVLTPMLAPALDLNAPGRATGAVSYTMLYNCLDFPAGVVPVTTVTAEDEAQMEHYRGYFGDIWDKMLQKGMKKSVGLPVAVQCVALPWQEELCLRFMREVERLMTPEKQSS", "assay": "FAAH assay (glutamate dehydrogenase-coupled, oleamide substrate, absorbance at 340 nm)", "assay_type": "biochemical", "conditions": "irreversible inhibition, 1-4 nM FAAH, pH 7.4, 30° C., 90 min", "experimental": "(§1) The FAAH assay was carried out in 384-well clear polystyrene plates in a total volume of 50 μl per well. All percents are by volume. To each well, was placed the reaction mixture (40 μl) containing 1-4 nM FAAH, 50 mM NaPi, pH 7.4, 3 mM α-ketoglutarate, 0.15 mM NADH, 7.5 U/ml glutamate dehydrogenase, 2 mM ADP, 1 mM EDTA, and 0.1% Triton X-100 (The concentration shown for each component is the final concentration in the assay). […] This was immediately followed by the addition of 5 μl oleamide (500 μM) dissolved in 75% EtOH/25% DMSO and the reaction mixture was mixed for 1.5 min. The final concentrations of DMSO and EtOH in the assay were each 7.5%.\n(§2) Initial velocity data (V) were obtained from the slopes of the initial progressive curves. They were plotted as a function of substrate concentration and fit to the Michaelis-Menten equation (1) using Prism (GraphPad Software, Inc., San Diego, Calif.) software to obtain Km and Vmax values.\n(§3) To obtain potencies of irreversible inhibitors, progressive curves consistent with first order inhibition kinetics (two-step irreversible inhibition mechanism) were fit to equation (2) by nonlinear least squares regressions to determine kobs values at each inhibitor concentration, where [P]t is the absorbance at time t, V0 is a constant related to the steady state rate of the uninhibited reaction, and kobs is the first order rate constant for enzyme inactivation. The inhibitor dissociation constant (Ki) and the first order rate\n(§4) [formula] constant of enzyme inactivation at infinite inhibitor concentration (kinact) were then obtained by fitting the kobs vs. [I] curves to equation (3).", "units": {"hFAAH kinact/Ki": "M⁻¹ s⁻¹"}}
{"molecule": "O=C(Nc1cccnc1)N1CCC(=Cc2cccc(Oc3ccc(C(F)(F)F)cc3)c2)CC1", "note": "[Example 53]", "hFAAH kinact/Ki": 4520}
{"target": "T1, Human FAAH", "assay": "FAAH assay (glutamate dehydrogenase-coupled, oleamide substrate, absorbance at 340 nm)", "assay_type": "biochemical", "conditions": "irreversible inhibition, 1-4 nM FAAH, pH 7.4, 30° C., 90 min, read-out: hFAAH kinact/Ki", "experimental": "as §1, §2, §3, §4", "units": {"kinact/KI": "M⁻¹ s⁻¹"}}
{"molecule": "O=C(Nc1ccc(Br)nc1)N1CCC(=Cc2cccc(Oc3ccc(C(F)(F)F)cn3)c2)CC1", "note": "[Example 28, 4-(3-(5-(trifluoromethyl)pyridin-2-yloxy)benzylidene)-N-(6-bromopyridin-3-yl)piperidine-1-carboxamide]", "kinact/KI": 6190}
{"molecule": "O=C(Nc1ccccc1F)N1CCC(=Cc2cccc(Oc3ccc(C(F)(F)F)cn3)c2)CC1", "note": "[Example 29, 4-(3-(5-(trifluoromethyl)pyridin-2-yloxy)benzylidene)-N-(2-fluorophenyl)piperidine-1-carboxamide]", "kinact/KI": 3370}
{"molecule": "N#Cc1ccc(Oc2cccc(C=C3CCN(C(=O)Nc4cccnc4)CC3)c2)nc1", "note": "[Example 30, 4-(3-(5-cyanopyridin-2-yloxy)benzylidene)-N-(pyridin-3-yl)piperidine-1-carboxamide]", "kinact/KI": 3540}
{"molecule": "O=C(Nc1cccnc1)N1CCC(=Cc2cccc(Oc3ccc(Br)cn3)c2)CC1", "note": "[Example 33, 4-{3-[(5-bromopyridin-2-yl)oxy]benzylidene}-N-pyridin-3-ylpiperidine-1-carboxamide]", "kinact/KI": 26300}
{"molecule": "O=C(Nc1cccnn1)N1CCC(=Cc2cccc(Oc3ccc(Br)cn3)c2)CC1", "note": "[Example 34, 4-(3-(5-bromopyridin-2-yloxy)benzylidene)-N-(pyridazin-3-yl)piperidine-1-carboxamide]", "kinact/KI": 50900}
{"molecule": "Cc1noc(NC(=O)N2CCC(=Cc3cccc(Oc4ccc(Br)cn4)c3)CC2)c1C", "note": "[Example 35, 4-(3-(5-bromopyridin-2-yloxy)benzylidene)-N-(3,4-dimethylisoxazol-5-yl)piperidine-1-carboxamide]", "kinact/KI": 3670}
{"molecule": "O=C(Nc1cccnc1)N1CCC(=Cc2cccc(Oc3ncc(Br)cn3)c2)CC1", "note": "[Example 36, 4-(3-(5-bromopyrimidin-2-yloxy)benzylidene)-N-(pyridin-3-yl)piperidine-1-carboxamide]", "kinact/KI": 5070}
{"molecule": "O=C(Nc1cccnn1)N1CCC(=Cc2cccc(Oc3ncc(Br)cn3)c2)CC1", "note": "[Example 37, 4-(3-(5-bromopyrimidin-2-yloxy)benzylidene)-N-(pyridazin-3-yl)piperidine-1-carboxamide]", "kinact/KI": 15100}
{"molecule": "O=C(Nc1cccnc1)N1CCC(=Cc2cccc(Oc3ccc(C4CC4)cn3)c2)CC1", "note": "[Example 38, 4-(3-(5-cyclopropylpyridin-2-yloxy)benzylidene)-N-(pyridin-3-yl)piperidine-1-carboxamide]", "kinact/KI": 9180}
{"molecule": "O=C(Nc1cccnn1)N1CCC(=Cc2cccc(Oc3ccc(C4CC4)cn3)c2)CC1", "note": "[Example 39, 4-(3-(5-cyclopropylpyridin-2-yloxy)benzylidene)-N-(pyridazin-3-yl)piperidine-1-carboxamide]", "kinact/KI": 18200}
{"molecule": "Cc1cccc(Oc2cccc(C=C3CCN(C(=O)Nc4cccnc4)CC3)c2)n1", "note": "[Example 40, 4-(3-(6-methylpyridin-2-yloxy)benzylidene)-N-(pyridin-3-yl)piperidine-1-carboxamide]", "kinact/KI": 554}
{"molecule": "Cc1cccc(Oc2cccc(C=C3CCN(C(=O)Nc4cccnn4)CC3)c2)n1", "note": "[Example 41, 4-(3-(6-methylpyridin-2-yloxy)benzylidene)-N-(pyridazin-3-yl)piperidine-1-carboxamide]", "kinact/KI": 687}
{"molecule": "Cc1cccnc1Oc1cccc(C=C2CCN(C(=O)Nc3cccnc3)CC2)c1", "note": "[Example 42, 4-(3-(3-methylpyridin-2-yloxy)benzylidene)-N-(pyridin-3-yl)piperidine-1-carboxamide]", "kinact/KI": 834}
{"molecule": "Cc1cccnc1Oc1cccc(C=C2CCN(C(=O)Nc3cccnn3)CC2)c1", "note": "[Example 43, 4-(3-(3-methylpyridin-2-yloxy)benzylidene)-N-(pyridazin-3-yl)piperidine-1-carboxamide]", "kinact/KI": 1410}
{"molecule": "Cc1ccc(Oc2cccc(C=C3CCN(C(=O)Nc4cccnn4)CC3)c2)nc1", "note": "[Example 45, 4-(3-(5-methylpyridin-2-yloxy)benzylidene)-N-(pyridazin-3-yl)piperidine-1-carboxamide]", "kinact/KI": 12800}
{"molecule": "Cc1ccc(Oc2cccc(C=C3CCN(C(=O)Nc4onc(C)c4C)CC3)c2)nc1", "note": "[Example 46, 4-(3-(5-methylpyridin-2-yloxy)benzylidene)-N-(3,4-dimethylisoxazol-5-yl)piperidine-1-carboxamide]", "kinact/KI": 3700}
{"molecule": "CCOc1ccc(Oc2cccc(C=C3CCN(C(=O)Nc4cccnc4)CC3)c2)nc1", "note": "[Example 47, 4-(3-(5-ethoxypyridin-2-yloxy)benzylidene)-N-(pyridin-3-yl)piperidine-1-carboxamide]", "kinact/KI": 4490}
{"molecule": "CCOc1ccc(Oc2cccc(C=C3CCN(C(=O)Nc4cccnn4)CC3)c2)nc1", "note": "[Example 48, 4-(3-(5-ethoxypyridin-2-yloxy)benzylidene)-N-(pyridazin-3-yl)piperidine-1-carboxamide]", "kinact/KI": 5830}
{"molecule": "O=C(Nc1cccnc1)N1CCC(=Cc2cccc(Oc3ccc(OCC(F)(F)F)cn3)c2)CC1", "note": "[Example 49, 4-(3-(5-(2,2,2-trifluoroethoxy)pyridin-2-yloxy)benzylidene)-N-(pyridin-3-yl)piperidine-1-carboxamide]", "kinact/KI": 6560}
{"molecule": "O=C(Nc1cccnn1)N1CCC(=Cc2cccc(Oc3ccc(OCC(F)(F)F)cn3)c2)CC1", "note": "[Example 50, 4-(3-(5-(2,2,2-trifluoroethoxy)pyridin-2-yloxy)benzylidene)-N-(pyridazin-3-yl)piperidine-1-carboxamide]", "kinact/KI": 5670}
{"molecule": "CC(C)Oc1ccc(Oc2cccc(C=C3CCN(C(=O)Nc4cccnc4)CC3)c2)nc1", "note": "[Example 51, 4-(3-(5-isopropoxypyridin-2-yloxy)benzylidene)-N-(pyridin-3-yl)piperidine-1-carboxamide]", "kinact/KI": 4330}
{"molecule": "CC(C)Oc1ccc(Oc2cccc(C=C3CCN(C(=O)Nc4cccnn4)CC3)c2)nc1", "note": "[Example 52, 4-(3-(5-isopropoxypyridin-2-yloxy)benzylidene)-N-(pyridazin-3-yl)piperidine-1-carboxamide]", "kinact/KI": 4090}
{"molecule": "O=C(Nc1cccnn1)N1CCC(=Cc2cccc(Oc3ccc(C(F)(F)F)cc3)c2)CC1", "note": "[Example 54, 4-(3-(4-(trifluoromethyl)phenoxy)benzylidene)-N-(pyridazin-3-yl)piperidine-1-carboxamide]", "kinact/KI": 12000}
{"molecule": "Cc1noc(NC(=O)N2CCC(=Cc3cccc(Oc4ccc(C(F)(F)F)cc4)c3)CC2)c1C", "note": "[Example 55, 4-(3-(4-(trifluoromethyl)phenoxy)benzylidene)-N-(3,4-dimethylisoxazol-5-yl)piperidine-1-carboxamide]", "kinact/KI": 1610}
{"molecule": "Cc1ccc(NC(=O)N2CCC(=Cc3cccc(Oc4ccc(C(F)(F)F)cc4)c3)CC2)cn1", "note": "[Example 56, 4-(3-(4-(trifluoromethyl)phenoxy)benzylidene)-N-(6-methylpyridin-3-yl)piperidine-1-carboxamide]", "kinact/KI": 3580}
{"molecule": "O=C(Nc1cccnn1)N1CCC(=Cc2cccc(Oc3ccc(C(F)(F)F)nc3)c2)CC1", "note": "[Example 57, 4-(3-(6-(trifluoromethyl)pyridin-3-yloxy)benzylidene)-N-(pyridazin-3-yl)piperidine-1-carboxamide]", "kinact/KI": 16800}
{"molecule": "CCOc1cc(C=C2CCN(C(=O)Nc3cccnc3)CC2)cc(Oc2ccc(C(F)(F)F)cn2)c1", "note": "[Example 58, 4-(3-ethoxy-5-(5-(trifluoromethyl)pyridin-2-yloxy)benzylidene)-N-(pyridin-3-yl)piperidine-1-carboxamide]", "kinact/KI": 322}
{"molecule": "O=C(Nc1cccnc1)N1CCC(=Cc2ccc(Cl)c(Oc3ccc(C(F)(F)F)cn3)c2)CC1", "note": "[Example 59, 4-(4-chloro-3-(5-(trifluoromethyl)pyridin-2-yloxy)benzylidene)-N-(pyridin-3-yl)piperidine 1-carboxamide]", "kinact/KI": 260}
{"molecule": "Cc1ccc(C=C2CCN(C(=O)Nc3cccnc3)CC2)cc1Oc1ccc(C(F)(F)F)cn1", "note": "[Example 60, 4-(4-methyl-3-(5-(trifluoromethyl)pyridin-2-yloxy)benzylidene)-N-(pyridin-3-yl)piperidine-1-carboxamide]", "kinact/KI": 1580}
{"molecule": "Cc1cc(C=C2CCN(C(=O)Nc3cccnc3)CC2)cc(Oc2ccc(C(F)(F)F)cn2)c1", "note": "[Example 61, 4-(3-methyl-5-(5-(trifluoromethyl)pyridin-2-yloxy)benzylidene)-N-(pyridin-3-yl)piperidine-1-carboxamide]", "kinact/KI": 2130}
